Laboratory results from ChEMBL document CHEMBL3046925, “,-Dibromoacetophenones mediated synthesis of some new 7H-7-alkoxy-3-alkyl/phenyl-6-aryl-s-triazolo[3,4-b][1,3,4]thiadiazines and their antimicrobial evaluation” (2012).
In brackets after ≈: the same amount, converted by molar mass. Activity calls are given as the source filed them. The rule behind the calls is not given here.

Key:
Staphylococcus aureus [1] = test: Antimicrobial activity against Staphylococcus aureus MTCC 96 after 24 hr by two-fold serial dilution method; assay type: functional; details: MTCC 96, 24 h
Bacillus subtilis [2] = test: microbe, parasite or virus in culture; assay type: functional; details: MTCC 121, 24 h
Description: Antimicrobial activity against Bacillus subtilis MTCC 121 at 2 mg/ml after 24 hr by two-fold serial dilution method

Candida albicans [3] = test: Antimicrobial activity against Candida albicans MTCC 227 at 2 mg/ml by agar well diffusion method; assay type: functional; details: for zone of inhibition at 2000 µg/mL: read-out: DIZ
Saccharomyces cerevisiae [4] = test: Antimicrobial activity against Saccharomyces cerevisiae MTCC 170 after 24 hr by two-fold serial dilution method; assay type: functional
Pseudomonas aeruginosa = test: Antimicrobial activity against Pseudomonas aeruginosa MTCC 741 at 2 mg/ml after 24 hr by agar well diffusion method; assay type: functional, organism-based
Escherichia coli = test: Antimicrobial activity against Escherichia coli MTCC 1652 at 2 mg/ml after 24 hr by agar well diffusion method; assay type: functional, organism-based
Saccharomyces cerevisiae [5] = test: Antimicrobial activity against Saccharomyces cerevisiae MTCC 170 at 2 mg/ml after 24 hr by agar well diffusion method; assay type: functional; details: for zone of inhibition at 2000 µg/mL: MTCC 170, 24 h, read-out: DIZ
Candida albicans [6] = test: Antimicrobial activity against Candida albicans MTCC 227 at 2 mg/ml by two-fold serial dilution method; assay type: functional
Bacillus subtilis [7] = test: microbe, parasite or virus in culture; assay type: functional; details: MTCC 121, 24 h, read-out: DIZ
Description: Antimicrobial activity against Bacillus subtilis MTCC 121 at 2 mg/ml after 24 hr by agar well diffusion method

Staphylococcus aureus [8] = test: Antimicrobial activity against Staphylococcus aureus MTCC 96 at 2 mg/ml after 24 hr by agar well diffusion method; assay type: functional; details: MTCC 96, 24 h, read-out: DIZ

Structure (SMILES)	MIC (Staphylococcus aureus [1]) [µg/mL]	MIC (Bacillus subtilis [2]) [µg/mL]	diameter of the inhibition zone (DIZ) (Candida albicans [3])	MIC (Saccharomyces cerevisiae [4]; MTCC 170, 24 h) [µg/mL]	Activity (Pseudomonas aeruginosa)	Activity (Escherichia coli)	zone of inhibition at 2000 µg/mL (Saccharomyces cerevisiae [5]) [mm]	MIC (Candida albicans [6])	zone of inhibition at 2000 µg/mL (Bacillus subtilis [7]) [mm]	zone of inhibition at 2000 µg/mL (Staphylococcus aureus [8]) [mm]	zone of inhibition at 2000 µg/mL (Candida albicans [3]) [mm]	MIC (Saccharomyces cerevisiae [4])	diameter of the inhibition zone (DIZ) (Saccharomyces cerevisiae [5])
CCCc1nnc2n1N=C(c1ccccc1)C(OC)S2 (stereo not drawn)	128 (≈ 444 µM)	64 (≈ 222 µM)	inactive	256 (≈ 888 µM)	inactive	inactive	12.6	inactive	18.3	16			
CCCOC1Sc2nnc(CCC)n2N=C1c1ccccc1 (stereo not drawn)	256 (≈ 809 µM)	128 (≈ 405 µM)	inactive	64 (≈ 202 µM)	inactive	inactive	15.3	inactive	16.3	13.6			
CCc1nnc2n1N=C(c1ccc(Cl)cc1)C(OC(C)C)S2 (stereo not drawn)	> 256	> 256	inactive	> 256	inactive	inactive	11.3	inactive	12.3	11.3			
CCOC1Sc2nnc(CC)n2N=C1c1ccc(C)cc1 (stereo not drawn)	> 256	128 (≈ 423 µM)	inactive	> 256	inactive	inactive	10.6	inactive	17	12.3			
O=C(O)c1cn(C2CC2)c2cc(N3CCNCC3)c(F)cc2c1=O [CIPROFLOXACIN]	5 (≈ 15.1 µM)	5 (≈ 15.1 µM)							24	26.6			
CCc1nnc2n1N=C(c1ccc(Cl)cc1)C(OC)S2 (stereo not drawn)	64 (≈ 207 µM)	128 (≈ 415 µM)		128 (≈ 415 µM)	inactive	inactive	12.6	128 µg/mL (≈ 415 µM)	16.3	19.3	13		
CCc1nnc2n1N=C(c1ccccc1)C(OC)S2 (stereo not drawn)	32 (≈ 117 µM)	32 (≈ 117 µM)		64 (≈ 233 µM)	inactive	inactive	15.3	64 µg/mL (≈ 233 µM)	21.6	22.3	16.3		
CCCOC1Sc2nnc(CC)n2N=C1c1ccccc1 (stereo not drawn)	256 (≈ 847 µM)	256 (≈ 847 µM)	inactive		inactive	inactive		inactive	13.6	14		inactive	inactive
CCOC1Sc2nnc(CC)n2N=C1c1ccc(Br)cc1 (stereo not drawn)	> 256	256 (≈ 697 µM)	inactive		inactive	inactive		inactive	13.6	12.3		inactive	inactive
CCOC1Sc2nnc(-c3ccccc3)n2N=C1c1ccccc1 (stereo not drawn)	16 (≈ 47.6 µM)	128 (≈ 380 µM)		32 (≈ 95.1 µM)	inactive	inactive	17.6	64 µg/mL (≈ 190 µM)	17.6	24.3	15.6		
CCCOC1Sc2nncn2N=C1c1ccccc1 (stereo not drawn)	128 (≈ 467 µM)	64 (≈ 233 µM)	inactive		inactive	inactive		inactive	18.3	15.6		inactive	inactive
C[C@@H]1[C@H](O)[C@@H](C)/C=C/C=C/C=C/C=C/C=C/C=C/C=C/[C@H](O[C@@H]2O[C@H](C)[C@@H](O)[C@H](N)[C@@H]2O)C[C@@H]2O[C@](O)(C[C@@H](O)C[C@@H](O)[C@H](O)CC[C@@H](O)C[C@@H](O)CC(=O)O[C@H]1C)C[C@H](O)[C@H]2C(=O)O [AMPHOTERICIN B]				100 (≈ 108 µM)			13.6	100 µg/mL (≈ 108 µM)			14.3		
CC(C)OC1Sc2nnc(-c3ccccc3)n2N=C1c1ccccc1 (stereo not drawn)	128 (≈ 365 µM)	256 (≈ 730 µM)	inactive	128 (≈ 365 µM)	inactive	inactive	13.3	inactive	15.6	18.3			
